Test results taken from PubChem BioAssay (NCI).
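Protocol summary: plate cells (96-well), add compound at 5 concentrations, incubate 48 h, interpolate endpoints linearly. TGI: total growth inhibition.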 Where a SMILES comes first, the peptide text is derived from it. The star is where a group is joined. Boc = CC(C)(C)OC(=O)*; Bz = O=C(c1ccccc1)*

Assays:
Experiment in all cases: NCI-60 cell line screen, 48 h
HL-60(TB) leukemia = tested on: HL-60(TB) leukemia
NCI-H23 lung = tested on: NCI-H23 lung
SK-MEL-5 melanoma = tested on: SK-MEL-5 melanoma
NCI/ADR-RES ovarian = tested on: NCI/ADR-RES ovarian
MDA-MB-231 breast = tested on: MDA-MB-231 breast
MDA-N = tested on: MDA-N
RXF 393 renal = tested on: RXF 393 renal
HOP-92 NSCLC = tested on: HOP-92 NSCLC
SF-295 CNS = tested on: SF-295 CNS
HS 578T breast = tested on: HS 578T breast

Compound | TGI (HL-60(TB) leukemia) | TGI (NCI-H23 lung) | TGI (SK-MEL-5 melanoma) | TGI (NCI/ADR-RES ovarian) | TGI (MDA-MB-231 breast) | TGI (MDA-N) | TGI (RXF 393 renal) | TGI (HOP-92 NSCLC) | TGI (SF-295 CNS) | TGI (HS 578T breast)
CC(NC(=O)C(Cc1ccc(OC(=O)c2ccccc2)cc1)NC(=O)OC(C)(C)C)C(=O)NC(Cc1ccccc1)C(=O)NCC(N)=O (stereo not given) (Boc-Y(Bz)AFG-NH2; configuration not given here) | 82 µM | 45.9 µM | 81.7 µM | > 100 µM | 36.5 µM | 79.4 µM | 46.4 µM | 50.9 µM | 40.1 µM | 47 µM
COc1cc(Cc2cc3c(c(C(=O)O)c2Br)OCO3)cc(OC)c1OC | 62.2 µM | > 100 µM | > 100 µM | > 100 µM | > 100 µM | 67 µM |  | > 100 µM | > 100 µM | > 100 µM
CC1(C)[C@H](C(=O)O)N2C(=O)[C@@H](NS(=O)(=O)c3ccc([N+](=O)[O-])cc3)[C@H]2S1(=O)=O | > 100 µM | > 100 µM | > 100 µM | > 100 µM | > 100 µM | > 100 µM | > 100 µM | > 100 µM | > 100 µM | > 100 µM
COc1ccccc1/C=C/C1=NN(c2cccc(S(=O)(=O)O)c2)C2(C1)SCC(=O)N2c1nc2ccccc2s1 (stereo not given) | > 100 µM | > 100 µM | > 100 µM | > 100 µM | > 100 µM | > 100 µM | > 100 µM | > 100 µM |  | > 100 µM
O=C(O)c1ccccc1NC(c1ccccc1)c1ccc2cccnc2c1O (stereo not given) | 8.22 µM | > 53 µM | 24.5 µM | > 49.3 µM | > 62.4 µM | > 100 µM | 27.7 µM | > 100 µM | > 100 µM | > 68.1 µM
CCOC(=O)C1(C(N)=O)C(=O)c2ccncc2C1=O (stereo not given) | > 100 µM | > 100 µM | > 100 µM | > 100 µM | > 100 µM | > 100 µM | > 100 µM | > 100 µM | > 100 µM | > 100 µM
CC(=N\N)/C(C)=N/N=C(C)/C(C)=N/N=C(C)/C(C)=N/N=C(C)/C(C)=N/N | > 100 µM | > 100 µM | > 100 µM | > 100 µM | > 100 µM | > 100 µM | > 100 µM | > 100 µM | > 100 µM | > 100 µM
COc1ccc(/C=C2\CCCC(CN(C)C)C2=O)cc1 (stereo not given) | 4.62 µM | 13.9 µM | 28.8 µM | 6.56 µM | 8.61 µM | 8.5 µM |  | 8.99 µM | 36.8 µM | 10.9 µM
C=CCOC(=O)N1[C@H]2C#C/C=C\C#C[C@]3(O)C(=O)C[C@H](C)[C@]24O[C@]43C2=CC(=O)C=CC21OC (stereo not given in full) | 92.8 µM | > 100 µM |  | > 100 µM | 85.9 µM | > 100 µM | 47.7 µM | > 100 µM | > 100 µM | > 100 µM
CC(=O)Nc1ccc(Nc2cc(=O)[nH]c(=O)[nH]2)cc1 | > 100 µM |  | > 100 µM | > 100 µM | > 100 µM | > 100 µM | > 100 µM | > 100 µM | > 100 µM | > 100 µM
Cc1c2c(c(C)n1-c1ccccc1)C(=O)N(CCCCN1CCN(c3ccccc3)CC1)C2=O | 17.2 µM | 48.5 µM | 13.6 µM | 83.9 µM | 24.1 µM | 31.2 µM | > 100 µM | 46.3 µM | 53.7 µM | > 100 µM
CCOC(=O)c1ccc(Nc2cnc3cc(C(F)(F)F)ccc3n2)cc1 | > 100 µM | > 100 µM | > 100 µM | > 100 µM | > 100 µM | > 100 µM |  | > 100 µM | > 100 µM | > 100 µM
O=c1cc(NCCCCCO)[nH]c(=O)[nH]1 | > 100 µM | > 100 µM | > 100 µM | > 100 µM | > 100 µM | > 100 µM | > 100 µM | > 100 µM | > 100 µM | > 100 µM
CC(C)(C)c1cc(CC2C(=O)c3ccccc3C2=O)cc(C(C)(C)C)c1O | 6.69 µM | > 100 µM | 11.1 µM | > 100 µM | 7.74 µM | > 100 µM |  | 1.07 µM | 12.4 µM | 39.8 µM
CCCCCC(C)(C)CCC(=O)OC1OC(COC2OC(COC3OC(CO)C(O)C(O)C3O)C(O)C(O)C2O)C(O)C(O)C1O (stereo not given) | > 100 µM | > 100 µM | > 100 µM | > 100 µM | > 100 µM | > 100 µM | > 100 µM | > 100 µM | > 100 µM | > 100 µM
Cc1ccc(-c2nc(C)c(C(=O)Nc3ccc(Cl)cc3)s2)cc1 | > 100 µM | 83.6 µM | 41.7 µM | > 100 µM | 75.6 µM | > 100 µM |  | 70.2 µM | 33.7 µM | 62.1 µM
CCOC(=O)c1c2c3c(cccc3[nH]c1=O)Sc1ncccc1-2 | 86.4 µM | 86.3 µM | 24 µM | > 100 µM | > 100 µM | > 100 µM | 94.9 µM |  | 95.3 µM | > 100 µM
NNC(=O)CSc1nc2ccc(I)cc2c(=O)n1Cc1ccccc1 | 61 µM | 74.7 µM | 38.5 µM | > 100 µM | 34.1 µM | > 100 µM | 26.5 µM | 57 µM | 53.7 µM | 52.5 µM
Nc1cc2c3c(c1)Oc1cc(N)cc4c1C3c1c(cc(N)cc1O4)O2 | 52.6 µM | > 66.5 µM | 27.3 µM | 26.9 µM | 53.8 µM | 59.5 µM | 29 µM | > 100 µM | > 96.6 µM | > 100 µM
COc1cc(C2SCC(=O)N2c2cc(Cl)c(Cl)cc2Cl)cc(OC)c1OC (stereo not given) | > 100 µM | > 100 µM | > 100 µM | > 100 µM | > 100 µM | 95.4 µM |  | > 100 µM | > 100 µM | > 100 µM
